{
  "source": "patent US4278595A",
  "about": "“Orally active MIF analogs with an effect on the central nervous system” (Vega Laboratories, Inc., priority 1979, dated 1981)",
  "format_in_all_cases": "in vivo, rat",
  "key": {"[1]": {"test_system": "male Sprague-Dawley rats with unilateral 6-hydroxy-Dopamine lesion in the substantia nigra", "assay": "Duration of L-DOPA-reversed rotational behavior in rats with unilateral 6-hydroxy-Dopamine lesion of the substantia nigra (third series)", "description": "The MIF analogs were tested for \"Parkinsonion\" locomotor behavior response by three different test procedures. In the third series of tests, male Sprague-Dawley rats received a unilateral chemical lesion (by injection of 6-hydroxy-Dopamine) in the substantia nigra, which is followed by rotational movement. When L-DOPA is given i.p. (in two doses, 13 and 26 mg/kg) the direction of rotational movement is reversed, and the duration of the reversed rotational motion was measured in minutes. The same doses of L-DOPA were then given in the experimental groups in combination with 2 mg/kg of either MIF or the MIF analogs, all i.p., or by gastric tube in a dose of 4 mg/kg, and the duration, in minutes, of reversed rotational behavior was observed."}, "[2]": {"test_system": "reserpinized male Long-Evans rats", "assay": "Locomotor activity of reserpinized rats after intraventricular administration (first series)", "details": "rats reserpinized i.p. 10 mg/kg", "description": "(§1) The MIF analogs were tested for \"Parkinsonion\" locomotor behavior response by three different test procedures.\nIn the first series of tests, male Long-Evans rats were prepared with a cannula fixed from the exterior to the lateral ventricle for direct intraventricular administration. The rats were reserpinized i.p. (10 mg/kg), and then MIF or MIF analogs, were given directly into the CSF. Activity of the rats was measured in counts/10 minutes with a digital printout activity meter (Columbus Instruments, model PB 5244, Columbus, Ohio). The results of these tests are as follows"}, "[3]": {"test_system": "reserpinized male Long-Evans rats", "assay": "L-DOPA potentiation: locomotor activity of reserpinized rats given agent i.p. with Carbi-DOPA and L-DOPA (second series)", "details": "2 mg/kg i.p. with 10 mg/kg Carbi-DOPA and 100 mg/kg L-DOPA", "description": "as §1\nIn the second series of tests, male Long-Evans rats prepared and reserpinized as described for the first series, were treated i.p. with 2 mg/kg of MIF or MIF analog, 10 mg/kg of Carbi-DOPA, a competitive inhibitor of DOPA-decarboxylase (to prolong the L-DOPA effect), and 100 mg/kg of L-DOPA. The control group received the latter two substances, but no MIF or MIF analog. Activity of the rats was measured, in counts/10 minutes with a digital printout activity meter, at 15, 35, 55, 75, 95 and 105 minutes after injection."}, "[4]": {"details": "Injection: L-DOPA i.p. (13 and 26 mg/kg) alone or in combination with 2 mg/kg MIF or analog i.p."}, "[5]": {"details": "Oral: L-DOPA i.p. (13 and 26 mg/kg) alone or in combination with 4 mg/kg MIF or analog by gastric tube"}, "[6]": {"details": "10 ng directly into the CSF (lateral ventricle)"}, "[7]": {"details": "100 ng directly into the CSF (lateral ventricle)"}},
  "note": "Where a SMILES comes first, the peptide text is derived from it. [ ]: non-standard residue; d: D form. pGlu = O=C1CC[C@@H](C(=O)O)N1",
  "data": [
    {"smiles": "N[C@@H](Cc1ccc(O)c(O)c1)C(=O)O", "note": "[L-DOPA]", "values": [
      {"measurement": "Duration of Reversed Rotational Behavior", "setting": "[1]; [4]", "value": "38 ± 3.4", "unit": "min"},
      {"measurement": "Duration of Reversed Rotational Behavior", "setting": "[1]; [5]", "value": "38 ± 3.4", "unit": "min"}
    ]},
    {"smiles": "CC(C)C[C@@H](NC(=O)[C@@H]1CCC(=O)N1)C(=O)NCC(N)=O", "note": "[pGlu--D--Leu--Gly--NH2] ([pGlu]-[dL]-Gly-NH2)", "values": [
      {"measurement": "Duration of Reversed Rotational Behavior", "setting": "[1]; [4]", "value": "96 ± 7.9", "unit": "min"},
      {"measurement": "Duration of Reversed Rotational Behavior", "setting": "[1]; [5]", "value": "110 ± 9.3", "unit": "min"},
      {"measurement": "% Increase in Activity, Counts/10 Minutes", "setting": "[2]; [6]", "value": 240, "unit": "%"},
      {"measurement": "% Increase in Activity, Counts/10 Minutes", "setting": "[2]; [7]", "value": 360, "unit": "%"},
      {"measurement": "% Increase in Activity, counts/10 min.", "setting": "[3]; 15 min. after injection", "value": 126, "unit": "%"},
      {"measurement": "% Increase in Activity, counts/10 min.", "setting": "[3]; 35 min. after injection", "value": 538, "unit": "%"},
      {"measurement": "% Increase in Activity, counts/10 min.", "setting": "[3]; 55 min. after injection", "value": 2450, "unit": "%"},
      {"measurement": "% Increase in Activity, counts/10 min.", "setting": "[3]; 75 min. after injection", "value": 2036, "unit": "%"},
      {"measurement": "% Increase in Activity, counts/10 min.", "setting": "[3]; 95 min. after injection", "value": 1035, "unit": "%"},
      {"measurement": "% Increase in Activity, counts/10 min.", "setting": "[3]; 105 min. after injection", "value": 478, "unit": "%"}
    ]},
    {"smiles": "CC(C)C[C@H](NC(=O)[C@@H]1CCCN1)C(=O)NCC(N)=O", "note": "[MIF, Pro--L--Leu--Gly--NH2, reference compound] (H-Pro-Leu-Gly-NH2)", "values": [
      {"measurement": "Duration of Reversed Rotational Behavior", "setting": "[1]; [4]", "value": "55 ± 6.2", "unit": "min"},
      {"measurement": "Duration of Reversed Rotational Behavior", "setting": "[1]; [5]", "value": "58 ± 5.3", "unit": "min"},
      {"measurement": "% Increase in Activity, Counts/10 Minutes", "setting": "[2]; [6]", "value": "No effect"},
      {"measurement": "% Increase in Activity, Counts/10 Minutes", "setting": "[2]; [7]", "value": "No effect"}
    ]}
  ]
}
